Data on four compounds can be found in paper PMC10810133, “Exploring the inhibitory potential of in silico-designed small peptides on Helicobacter pylori Hp0231 (DsbK), a periplasmic oxidoreductase involved in disulfide bond formation” (Frontiers in Molecular Biosciences, 2024).

The target of assay [1] is T1, Hp0231 (Helicobacter pylori, UniProt O25017). In words: biochemical. The protocol:
2.3.7 Assessment of interactions between inhibitory peptides and Hp0231 or Hp0231APHA using microscale thermophoresis
The purified Hp0231 and Hp0231APHA proteins were suspended in HEPES buffer (20 mM HEPES, 150 mM NaCl, 0.05% (v/v) TWEEN 20, pH 7.4). Protein concentrations were determined by absorption measurements at 280 nm, using the extinction coefficients ε280 = 16,055 M^−1 × cm^−1 for Hp0231 and ε280 = 15,930 M^−1 × cm^−1 for Hp0231APHA, calculated using Quest Calculate™ Protein Concentration Calculator (AAT BioQuest, https://www.aatbio.com/tools/calculate-protein-concentration). After adjusting their concentrations to 200 nM, Hp0231 and Hp0231APHA were labeled using a Monolith His-Tag Labeling Kit RED-tris-NTA (NanoTemper Technologies) according to the manufacturer’s instructions. […] To assess binding interactions between the Hp0231/Hp0231APHA proteins and the inhibitory peptides, MST measurements were performed using a NanoTemper ® Monolith NT.115 instrument (NanoTemper Technologies). Samples were prepared according to the manufacturer’s instructions and loaded in Premium coated capillaries (NanoTemper Technologies). Measurements were performed using MO.Control v1.6.1 (NanoTemper Technologies) software. Medium and high MST power were applied at 25°C. The results were analyzed using MO.Affinity Analysis v2.3 (NanoTemper Technologies) and Origin 2019 (OriginLab Corporation). At least three independent measurements were performed for each sample.

The target of assay [2] is T1, Hp0231. Put plainly: Peptide inhibitory activity assay (time-resolved Eu3+ fluorescence peptide oxidation assay). Type of assay: biochemical. Conditions: 160 nM Hp0231, […] GSSG, 8 µM substrate S1 or S2, pH 5.5. The protocol:
The peptide oxidation assay was performed as described previously ([Vivian et al., 2009]; [Kurth et al., 2014]) with slight modification. Briefly, peptide substrates (S1—[…]; S2—[…]) with DOTA (1,4,7,10-tetraazacycclododecane-1,4,7,10-tetraacetic acid) coupled at the N-terminus, and a methylcoumarin amide coupled to the Ɛ-amino group of the C-terminal lysine, were custom synthesized by Eurogentec. The lyophilized peptides were resuspended in 100 mM imidazole (pH 6.0) to a concentration of 2 mM. Freshly prepared 100 mM europium trifluoromethanesulfonate (Eu^3+) solution was added to each peptide at a final concentration of 4 mM and the mixtures incubated for 5 min at room temperature to permit Eu^3+ chelation. Eu^3+ was complexed with DOTA in order to facilitate observation of the oxidation rate of cysteine residues in the substrate peptide, leading to the formation of a disulfide bond. This process brings the methylcoumarin antenna into close contact with the DOTA-Eu^3+ fluorophore, resulting in an increase in Eu^3+ fluorescence. Thus, fluorescence could be used to monitor the capacity of Hp0231 or Hp0231APHA to catalyze disulfide bond formation.
Assays were conducted using an Infinite® M Nano + plate reader (Tecan) with an excitation wavelength of 340 nm and emission wavelength 615 nm. There was a 150 µs delay before reading and time-resolved fluorescence was measured over a period of 100 µs. The assay was performed in white 384-well plates (Perkin Elmer, OptiPlate-384). Each well contained 50 μL, which included the reaction buffer consisting of 50 mM MES, 50 mM NaCl, 2 mM EDTA (pH 5.5), 160 nM protein (either Hp0231 or Hp0231APHA), 1.6 mM GSSG (oxidized glutathione) and 8 µM substrate peptide which was added last to initiate the reaction. Three control reactions were included in each experiment: 1) reaction buffer, GSSG and a protein; 2) reaction buffer and substrate peptide; 3) reaction buffer, substrate peptide and GSSG. Measurements were made for three replicate samples and mean values are presented, with the standard error of the mean indicated by error bars. […]

The next assay concerns the target T2, Hp0231APHA (Helicobacter pylori, UniProt O25017, C159A/C162A).
T2 sequence (O25017 1-265 C159A/C162A): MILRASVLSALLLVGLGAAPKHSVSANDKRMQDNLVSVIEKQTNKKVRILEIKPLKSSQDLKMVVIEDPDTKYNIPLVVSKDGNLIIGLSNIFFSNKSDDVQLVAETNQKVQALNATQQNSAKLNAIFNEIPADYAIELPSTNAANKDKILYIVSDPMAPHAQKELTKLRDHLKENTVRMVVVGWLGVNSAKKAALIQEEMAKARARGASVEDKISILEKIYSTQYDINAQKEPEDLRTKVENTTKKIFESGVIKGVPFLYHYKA
In words: Microscale thermophoresis (MST) binding of inhibitory peptides to Hp0231APHA (inactive form).

The subject of a further assay is E. coli DsbA. Details: method as in Duprez et al. (2015). As to conditions: ref Duprez et al. (2015); cited from earlier work.
The mark [3] stands for this setting: MST, pseudo-titration mode, 25°C, Hp0231, mean of three experiments ± S.D., NB = not binding.
Setting [4] is: MST, pseudo-titration mode, 25°C, Hp0231APHA (CPHC to APHA, inactive), NB = not binding.
The mark [5] stands for this setting: MST, pseudo-titration mode, 25°C, Hp0231APHA (CPHC to APHA, inactive), NB = not binding, read-out: K D.

Entries after “also recorded” stand apart in the source; their conditions may differ. Where two headings read alike, the source gives them in different places. Residues, ends and D or L forms follow the SMILES beside them.

T1 sequence (O25017 entry or part of it): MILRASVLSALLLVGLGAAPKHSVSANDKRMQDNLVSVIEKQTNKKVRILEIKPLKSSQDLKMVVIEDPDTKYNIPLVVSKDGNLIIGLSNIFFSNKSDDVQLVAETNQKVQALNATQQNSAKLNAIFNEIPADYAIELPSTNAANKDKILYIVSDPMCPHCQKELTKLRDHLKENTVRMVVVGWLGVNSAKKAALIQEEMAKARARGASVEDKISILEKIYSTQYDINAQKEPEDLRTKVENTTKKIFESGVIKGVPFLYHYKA

For the compound `CC(=O)N[C@@H](Cc1c[nH]cn1)C(=O)N[C@@H](CCC(N)=O)C(=O)N[C@@H](CO)C(=O)N[C@@H](CS)C(=O)N[C@@H](C)C(=O)N[C@@H](CS)C(=O)N[C@@H](CCC(=O)O)C(=O)N[C@@H](CC(C)C)C(N)=O` [WAW8] (Ac-HQSCACEL-NH2), on Hp0231 [1] (setting [3]), the “K D” value is “two binding affinities (low and high)”. Further, at Hp0231 [2] (inhibitory peptide 0.75 mM), the “Inhibition of Hp0231-catalyzed oxidation of substrate peptides (Eu3+ fluorescence increase)” value (“Inhibition … (Eu3+ fluorescence increase)” below) is “the reaction rate was significantly reduced”. This compound also showed a Kd at Hp0231APHA of 1.3 ± 0.2 µM.

As to PSPFATCDF, in the assay with E. coli DsbA, the Kd was 4 µM.

For Ac-HQSCAYEL-NH2 [WAW7], the Kd is 112 ± 21 µM at Hp0231 [1] and above 1000 µM on Hp0231APHA (setting [5]). The figures for the “K D” value on Hp0231 [1] (setting [3]) and at Hp0231APHA (setting [4]) were “low affinity” and “no interaction”, respectively. In addition, at Hp0231 [2] (inhibitory peptide 1 mM), the “Inhibition … (Eu3+ fluorescence increase)” value is listed as “inhibition of the fluorescence intensity increase”.

Ac-HQSALYEL-NH2 [WAW6]: the Kd at Hp0231 [1] (setting [3]) and at Hp0231APHA (setting [5]) was above 1000 µM each time. The “Inhibition … (Eu3+ fluorescence increase)” value on Hp0231 [2] (inhibitory peptide 1 mM) was “did not yield a significant alteration in the fluorescence intensity”. Besides, the “K D” value on Hp0231APHA (setting [4]) was “did not bind; also recorded: no binding”.
